Assay results reported in patent publication US20080131920A1, “Ion flux in biological processes, and methods related thereto” (priority 2005, published 2008).

Columns and labels:
KCNK1 = KCNK1 expression in the regeneration bud; set-up: species or system Xenopus laevis; details: in vivo
Text: We then sought to functionally link V-ATPase activity to gene expression in the regeneration bud. Existing markers include Notch pathway genes^2. […] Because of this, and because the V-ATPase is expressed so soon following amputation, we utilized an earlier marker that is normally expressed by 12 hpa: the K^+ channel KCNK1 (FIG. 14E,E′). In larvae in which V-ATPase activity was abrogated by concanamycin or a function-blocking anti-V-ATPase antibody, KCNK1 expression was absent (N=13, FIG. 14F,F′-G,G′). Thus, V-ATPase is upstream of some gene expression in the regeneration bud, including other ion transporters also specifically expressed during early stages of regeneration.
Larvae were fixed in MEMFA (Sive et al., 2000) and dehydrated in methanol. In situ hybridization was carried out according to standard protocols (Harland, 1991, Xenopus laevis: Practical uses in cell and molecular biology 36: 685-695). The ion transporter constructs used to generate probes for in situ hybridization (ISH) experiments were: Kcnk1 (TWIK-1, BC042262, Open Biosystems), V-ATPase 16 kDa subunit (BE025959, RZPD). Plasmids were used to generate anti-sense riboprobes by in vitro transcription. […] Expression indicated represents consistent consensus patterns obtained from analysis of at least 15 larvae in all experiments. […]

activated caspase-3 = test: Activated caspase-3 localization (apoptosis) in regenerating tails; format: in vivo, Xenopus laevis; details: V-ATPase-inhibited larvae
Experimental: Further experiments were done in the Xenopus system based on the results of the pharmacological screen (see Example 6). […] The V-ATPase (Nishi, 2002, Nature Reviews Molecular Cell Biology 3: 94-103) generates strong pH and voltage gradients at the expense of ATP, when expressed in vesicular or cell plasma membranes.
Xenopus larvae were fixed overnight in MEMFA, heated for 2 hrs at 65° C. in 50% formamide (to inactivate endogenous alkaline phosphatases; this procedure was not done when using fluorescent secondary antibodies), permeabilized in PBTr+0.1% Triton X100 for 30 min, and processed for immunohistochemistry using alkaline phosphatase secondary antibody (Levin, 2004, Journal of Biochemical and Biophysical Methods 58: 85-96) until signal was optimal and background minimal (usually 12 hrs). […] Anti-KCNK1 (a generous gift of Dr. S. A. Goldstein and D. Bockenhauer) was used at 1:500. The 12-101 muscle marker (Gurdon et al., 1985, Cell 41: 913-22; Kintner and Brockes, 1984, Nature 308: 67-9) was used at 1:1 dilution; this monoclonal antibody developed by Jeremy P. Brockes was obtained from the Developmental Studies Hybridoma Bank developed under the auspices of the NICHD and maintained by The University of Iowa, Department of Biological Sciences, Iowa City, Iowa 52242.

C/C=C/[C@H]1O[C@@](O)([C@@H](C)[C@H](O)[C@H](C)[C@H]2OC(=O)/C(OC)=C/C(C)=C/[C@@H](C)[C@@H](O)[C@@H](CC)[C@@H](O)[C@H](C)C/C(C)=C/C=C/[C@@H]2OC)C[C@@H](O)[C@@H]1C [concanamycin]
KCNK1 expression in the regeneration bud (KCNK1): absent
degree of apoptosis vs control (activated caspase-3): no significant difference
